The target of experiment [1] is T1, Adenosine receptor A3 (Homo sapiens, UniProt P0DMS8).
T1 sequence (P0DMS8 whole entry): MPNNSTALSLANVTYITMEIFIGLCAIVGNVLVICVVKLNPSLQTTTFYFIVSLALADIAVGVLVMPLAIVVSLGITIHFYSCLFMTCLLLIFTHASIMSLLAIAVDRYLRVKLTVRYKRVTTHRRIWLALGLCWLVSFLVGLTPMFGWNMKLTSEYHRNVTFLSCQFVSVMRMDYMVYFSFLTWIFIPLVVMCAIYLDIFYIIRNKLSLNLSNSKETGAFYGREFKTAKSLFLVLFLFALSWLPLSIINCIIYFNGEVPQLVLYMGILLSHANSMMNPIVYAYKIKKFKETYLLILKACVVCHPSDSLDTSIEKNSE

For experiment [2], the target named is T2, Cannabinoid receptor 1 (Homo sapiens, UniProt P21554). The class given is functional, cell-based.
T2 sequence (P21554 whole entry): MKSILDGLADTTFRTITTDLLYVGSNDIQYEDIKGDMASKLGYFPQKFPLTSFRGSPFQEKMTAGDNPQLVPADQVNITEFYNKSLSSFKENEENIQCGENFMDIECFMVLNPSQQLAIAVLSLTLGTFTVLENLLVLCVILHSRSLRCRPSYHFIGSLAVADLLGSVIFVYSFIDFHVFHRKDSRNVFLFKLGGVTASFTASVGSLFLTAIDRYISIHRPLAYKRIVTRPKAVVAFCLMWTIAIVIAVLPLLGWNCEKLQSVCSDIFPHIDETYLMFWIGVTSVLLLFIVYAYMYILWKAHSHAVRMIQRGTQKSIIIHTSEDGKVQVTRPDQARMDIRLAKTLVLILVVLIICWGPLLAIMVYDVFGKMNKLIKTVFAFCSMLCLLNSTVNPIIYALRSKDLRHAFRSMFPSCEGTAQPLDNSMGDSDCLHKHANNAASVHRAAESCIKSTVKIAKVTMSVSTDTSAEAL
Experiment [3] has as its target Histamine H2 receptor (Homo sapiens, UniProt P25021). The class given is functional, cell-based.
Experiment [4] concerns the target Beta-1 adrenergic receptor (Homo sapiens, UniProt P08588). The class given is functional.
Experiment [5] deals with Prostaglandin G/H synthase 1 (Homo sapiens, UniProt P23219). The class given is functional.
Chain of Prostaglandin G/H synthase 1 (P23219 whole entry): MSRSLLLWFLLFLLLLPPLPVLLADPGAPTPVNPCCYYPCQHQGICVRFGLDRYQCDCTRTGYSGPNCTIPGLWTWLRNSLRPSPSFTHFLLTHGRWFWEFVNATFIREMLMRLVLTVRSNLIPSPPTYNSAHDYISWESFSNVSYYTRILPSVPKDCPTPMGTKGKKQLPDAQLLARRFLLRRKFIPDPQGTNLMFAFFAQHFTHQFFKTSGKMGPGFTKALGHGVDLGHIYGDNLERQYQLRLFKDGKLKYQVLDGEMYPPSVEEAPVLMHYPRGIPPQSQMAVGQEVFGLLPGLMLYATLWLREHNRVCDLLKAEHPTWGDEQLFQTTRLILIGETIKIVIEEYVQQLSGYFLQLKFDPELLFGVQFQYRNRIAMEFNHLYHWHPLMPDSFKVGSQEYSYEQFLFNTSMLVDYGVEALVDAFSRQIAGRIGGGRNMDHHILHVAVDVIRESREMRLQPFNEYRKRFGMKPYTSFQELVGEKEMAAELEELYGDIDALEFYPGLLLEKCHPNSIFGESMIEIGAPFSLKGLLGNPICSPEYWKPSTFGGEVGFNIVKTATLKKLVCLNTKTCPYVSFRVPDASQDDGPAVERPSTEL
In experiment [6] the target is D(1A) dopamine receptor (Homo sapiens, UniProt P21728).
Chain of D(1A) dopamine receptor (P21728 whole entry): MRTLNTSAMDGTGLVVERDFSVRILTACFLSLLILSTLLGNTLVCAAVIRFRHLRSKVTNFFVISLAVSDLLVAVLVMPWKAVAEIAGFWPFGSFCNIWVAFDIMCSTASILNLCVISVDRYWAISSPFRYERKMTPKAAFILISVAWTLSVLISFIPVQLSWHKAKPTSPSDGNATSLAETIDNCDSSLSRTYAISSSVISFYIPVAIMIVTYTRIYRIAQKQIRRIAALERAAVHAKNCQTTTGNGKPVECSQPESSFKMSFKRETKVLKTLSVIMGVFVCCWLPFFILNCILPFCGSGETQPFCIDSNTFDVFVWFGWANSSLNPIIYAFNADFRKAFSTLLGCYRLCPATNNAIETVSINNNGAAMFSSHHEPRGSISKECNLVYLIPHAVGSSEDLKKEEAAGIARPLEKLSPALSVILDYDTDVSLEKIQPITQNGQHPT
The target in experiment [7] is T3, 5-hydroxytryptamine receptor 1A (Homo sapiens, UniProt P08908).
T3 sequence (P08908 whole entry): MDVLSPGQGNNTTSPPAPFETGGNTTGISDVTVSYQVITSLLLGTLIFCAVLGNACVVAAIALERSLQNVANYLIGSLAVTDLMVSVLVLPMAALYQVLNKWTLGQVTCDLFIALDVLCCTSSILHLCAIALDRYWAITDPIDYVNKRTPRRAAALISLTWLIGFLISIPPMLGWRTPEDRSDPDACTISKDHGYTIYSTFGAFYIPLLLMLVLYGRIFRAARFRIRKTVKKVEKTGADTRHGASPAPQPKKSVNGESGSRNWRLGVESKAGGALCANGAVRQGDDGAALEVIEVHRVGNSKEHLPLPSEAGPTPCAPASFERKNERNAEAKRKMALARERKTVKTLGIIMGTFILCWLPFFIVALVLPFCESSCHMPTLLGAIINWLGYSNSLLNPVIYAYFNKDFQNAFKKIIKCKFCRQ

Experiment [8] concerns the target Acetylcholinesterase (Homo sapiens, UniProt P22303). The class given is functional.
For experiment [9], the target named is T4, Alpha-1A adrenergic receptor (Homo sapiens, UniProt P35348).
T4 sequence (P35348 whole entry): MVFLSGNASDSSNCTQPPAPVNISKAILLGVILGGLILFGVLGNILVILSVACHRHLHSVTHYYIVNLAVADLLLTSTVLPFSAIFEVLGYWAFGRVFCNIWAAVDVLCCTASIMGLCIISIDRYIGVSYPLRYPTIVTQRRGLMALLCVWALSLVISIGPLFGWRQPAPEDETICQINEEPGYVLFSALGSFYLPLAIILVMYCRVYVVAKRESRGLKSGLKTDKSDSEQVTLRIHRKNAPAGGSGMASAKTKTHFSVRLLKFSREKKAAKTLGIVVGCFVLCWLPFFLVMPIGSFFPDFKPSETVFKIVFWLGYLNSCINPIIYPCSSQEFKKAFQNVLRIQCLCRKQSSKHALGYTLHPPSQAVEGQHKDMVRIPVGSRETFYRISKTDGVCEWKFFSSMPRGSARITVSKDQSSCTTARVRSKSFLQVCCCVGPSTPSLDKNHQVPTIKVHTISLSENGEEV
The class given is functional, cell-based.

Experiment [10] has as its target T2, Cannabinoid receptor 1. The class given is functional, cell-based. This is another data set of the same source.
In experiment [11] the target is 3',5'-cyclic-AMP phosphodiesterase 4A (Homo sapiens, UniProt P27815). The class given is functional.
Chain of 3',5'-cyclic-AMP phosphodiesterase 4A (P27815 whole entry): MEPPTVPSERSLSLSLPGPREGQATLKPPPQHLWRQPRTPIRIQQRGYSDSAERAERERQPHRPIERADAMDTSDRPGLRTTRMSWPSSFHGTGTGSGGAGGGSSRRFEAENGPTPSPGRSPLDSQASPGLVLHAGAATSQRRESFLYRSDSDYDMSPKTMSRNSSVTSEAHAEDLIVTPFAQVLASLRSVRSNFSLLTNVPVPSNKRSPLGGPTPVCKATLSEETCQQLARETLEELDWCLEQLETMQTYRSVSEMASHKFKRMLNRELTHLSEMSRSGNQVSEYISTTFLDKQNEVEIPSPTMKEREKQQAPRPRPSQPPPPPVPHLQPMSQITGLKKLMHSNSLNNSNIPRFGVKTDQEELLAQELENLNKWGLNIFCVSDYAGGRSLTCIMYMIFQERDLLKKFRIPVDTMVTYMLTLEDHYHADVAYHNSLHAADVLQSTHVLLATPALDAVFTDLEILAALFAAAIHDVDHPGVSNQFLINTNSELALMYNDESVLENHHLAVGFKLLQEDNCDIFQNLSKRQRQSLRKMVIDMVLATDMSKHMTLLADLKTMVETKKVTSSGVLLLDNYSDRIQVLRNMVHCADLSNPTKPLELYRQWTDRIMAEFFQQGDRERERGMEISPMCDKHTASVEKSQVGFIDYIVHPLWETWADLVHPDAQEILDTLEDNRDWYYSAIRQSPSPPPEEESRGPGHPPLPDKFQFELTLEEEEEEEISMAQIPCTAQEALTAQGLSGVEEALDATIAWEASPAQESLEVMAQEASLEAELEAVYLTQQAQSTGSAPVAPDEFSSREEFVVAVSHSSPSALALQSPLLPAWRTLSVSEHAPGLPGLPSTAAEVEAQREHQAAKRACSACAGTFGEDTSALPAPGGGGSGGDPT
Experiment [12] concerns the target T3, 5-hydroxytryptamine receptor 1A. The class given is functional, cell-based.
The target in experiment [13] is Gamma-aminobutyric acid receptor subunit alpha-1 (Rattus norvegicus, UniProt P62813).
Chain of Gamma-aminobutyric acid receptor subunit alpha-1 (P62813 whole entry): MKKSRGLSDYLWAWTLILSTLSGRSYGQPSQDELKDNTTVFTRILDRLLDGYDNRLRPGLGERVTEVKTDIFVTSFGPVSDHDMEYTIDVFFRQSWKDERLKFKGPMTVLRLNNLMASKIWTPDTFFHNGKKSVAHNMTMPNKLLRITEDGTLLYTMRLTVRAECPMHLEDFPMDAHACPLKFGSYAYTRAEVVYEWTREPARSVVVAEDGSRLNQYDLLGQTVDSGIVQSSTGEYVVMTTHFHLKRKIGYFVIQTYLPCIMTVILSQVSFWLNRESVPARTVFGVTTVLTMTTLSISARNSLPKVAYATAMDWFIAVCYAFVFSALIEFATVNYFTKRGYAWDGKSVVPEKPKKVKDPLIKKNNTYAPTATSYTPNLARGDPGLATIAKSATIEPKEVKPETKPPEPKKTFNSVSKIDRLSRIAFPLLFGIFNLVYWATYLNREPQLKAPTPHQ
Experiment [14] deals with T5, B2 bradykinin receptor (Homo sapiens, UniProt P30411).
T5 sequence (P30411 whole entry): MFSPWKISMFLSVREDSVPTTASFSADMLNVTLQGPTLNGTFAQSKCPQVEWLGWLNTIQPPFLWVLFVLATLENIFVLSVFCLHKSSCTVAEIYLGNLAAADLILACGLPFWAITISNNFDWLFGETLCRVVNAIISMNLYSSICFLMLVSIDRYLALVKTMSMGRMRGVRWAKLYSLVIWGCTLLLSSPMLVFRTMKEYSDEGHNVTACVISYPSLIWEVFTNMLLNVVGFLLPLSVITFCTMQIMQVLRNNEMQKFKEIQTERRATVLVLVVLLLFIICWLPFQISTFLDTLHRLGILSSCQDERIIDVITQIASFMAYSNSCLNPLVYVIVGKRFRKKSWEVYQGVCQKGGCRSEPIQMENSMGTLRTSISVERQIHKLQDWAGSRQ

Experiment [15] has as its target T4, Alpha-1A adrenergic receptor.
The target in experiment [16] is Melanocortin receptor 4 (Homo sapiens, UniProt P32245).
Chain of Melanocortin receptor 4 (P32245 whole entry): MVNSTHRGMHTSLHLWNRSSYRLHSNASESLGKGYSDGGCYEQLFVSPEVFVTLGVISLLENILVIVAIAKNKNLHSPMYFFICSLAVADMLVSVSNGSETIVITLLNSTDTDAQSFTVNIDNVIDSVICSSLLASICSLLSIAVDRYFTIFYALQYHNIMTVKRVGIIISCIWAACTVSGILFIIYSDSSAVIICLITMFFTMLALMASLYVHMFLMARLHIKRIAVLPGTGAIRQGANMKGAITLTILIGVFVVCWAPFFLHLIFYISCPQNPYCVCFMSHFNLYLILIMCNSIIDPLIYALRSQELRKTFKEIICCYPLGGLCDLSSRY
Experiment [17] addresses Sodium-dependent serotonin transporter (Homo sapiens, UniProt P31645).
The target of experiment [18] is 5-hydroxytryptamine receptor 2A (Homo sapiens, UniProt P28223). The class given is functional, cell-based.
Experiment [19] deals with Histamine H1 receptor (Homo sapiens, UniProt P35367).
Also: assay procedure not described here.

Chain of Acetylcholinesterase (P22303 whole entry): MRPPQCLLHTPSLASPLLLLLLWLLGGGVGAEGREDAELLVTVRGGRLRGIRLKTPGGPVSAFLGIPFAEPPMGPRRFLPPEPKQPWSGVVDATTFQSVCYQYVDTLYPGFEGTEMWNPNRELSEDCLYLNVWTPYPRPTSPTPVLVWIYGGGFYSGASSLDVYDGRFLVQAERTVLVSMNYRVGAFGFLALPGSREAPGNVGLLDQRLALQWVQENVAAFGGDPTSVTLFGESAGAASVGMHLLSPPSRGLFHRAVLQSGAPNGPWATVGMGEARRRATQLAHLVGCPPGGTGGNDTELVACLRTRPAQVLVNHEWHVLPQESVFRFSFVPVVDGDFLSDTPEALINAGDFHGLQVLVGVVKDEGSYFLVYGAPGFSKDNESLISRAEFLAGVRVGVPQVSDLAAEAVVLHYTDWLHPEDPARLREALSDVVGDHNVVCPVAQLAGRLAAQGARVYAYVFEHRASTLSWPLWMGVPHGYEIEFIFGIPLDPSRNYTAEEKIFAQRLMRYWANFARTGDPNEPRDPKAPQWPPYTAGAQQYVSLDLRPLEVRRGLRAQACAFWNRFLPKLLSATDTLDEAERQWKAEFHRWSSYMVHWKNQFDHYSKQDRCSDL
Chain of Beta-1 adrenergic receptor (P08588 whole entry): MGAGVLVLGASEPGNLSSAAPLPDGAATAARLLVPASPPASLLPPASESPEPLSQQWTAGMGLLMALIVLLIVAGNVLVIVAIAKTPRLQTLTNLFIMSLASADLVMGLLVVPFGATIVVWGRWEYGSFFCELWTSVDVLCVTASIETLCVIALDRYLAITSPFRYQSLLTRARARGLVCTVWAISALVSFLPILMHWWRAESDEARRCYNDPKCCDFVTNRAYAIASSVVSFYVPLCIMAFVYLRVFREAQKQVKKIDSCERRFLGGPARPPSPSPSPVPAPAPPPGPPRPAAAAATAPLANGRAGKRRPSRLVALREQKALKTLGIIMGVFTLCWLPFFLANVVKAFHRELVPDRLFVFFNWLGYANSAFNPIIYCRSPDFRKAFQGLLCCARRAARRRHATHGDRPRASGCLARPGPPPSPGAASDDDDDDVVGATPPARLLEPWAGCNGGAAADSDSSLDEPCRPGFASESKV
Chain of Histamine H2 receptor (P25021 whole entry): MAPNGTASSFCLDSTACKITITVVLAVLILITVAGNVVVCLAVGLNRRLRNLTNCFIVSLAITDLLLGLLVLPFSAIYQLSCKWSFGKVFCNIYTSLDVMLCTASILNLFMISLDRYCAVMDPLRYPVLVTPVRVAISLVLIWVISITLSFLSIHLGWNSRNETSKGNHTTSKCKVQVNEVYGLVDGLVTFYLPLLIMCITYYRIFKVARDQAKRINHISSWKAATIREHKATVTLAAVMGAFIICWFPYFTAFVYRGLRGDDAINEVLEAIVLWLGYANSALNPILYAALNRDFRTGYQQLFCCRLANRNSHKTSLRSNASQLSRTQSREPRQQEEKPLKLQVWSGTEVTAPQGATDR

In the case of `CS(=O)(=O)c1ccc([C@@H](O)[C@@H](CO)NC(=O)C(Cl)Cl)cc1` [THIAMPHENICOL], the half-maximal activity concentration (AC50) in [1], in experiment [2], in [3], in experiment [4], in [5] and in experiment [6] was > 30 µM each time. Also, the AC50 in [7], in experiment [8], in [9], in experiment [10], in experiment [11] and in experiment [12] was > 30 µM throughout. For the same molecule, the half-maximal activity concentration (AC50) in [13] and in experiment [14] was > 30 µM in each case.
Consider `CCc1ccc(CCOc2ccc(CC3SC(=O)NC3=O)cc2)nc1` (stereo not drawn) [PIOGLITAZONE], for which the concentration at half-maximal activity (AC50) (as a rule, the midpoint of the concentration-response curve, whichever way the signal moves) in experiment [1] is > 30 µM; in [3] it was > 10 µM; in experiment [4] it was > 10 µM; in [5], > 30 µM; in [15], > 10 µM; in experiment [6] it was > 30 µM. For the same molecule, the AC50 in [7] is > 30 µM; in experiment [8] it was > 30 µM; in experiment [9], > 30 µM; in [11] it was > 10 µM; in [12], > 10 µM; in [16], > 30 µM. In addition, the figures for the half-maximal activity concentration (AC50) in experiment [13] and in [14] were > 10 µM and > 30 µM, respectively.
In the case of `CC(C(=O)O)c1ccc(N2CC=CC2)c(Cl)c1` (stereo not drawn) [PIRPROFEN], the AC50 was > 30 µM in experiment [1]; > 30 µM in experiment [2]; > 10 µM in [3]; > 10 µM in experiment [4]; 0.115 µM in [5]; > 10 µM in experiment [15]. Moreover, the AC50 in experiment [6] is > 30 µM; in [7], > 30 µM; in [8], > 30 µM; in [9] it was > 30 µM; in experiment [10], > 30 µM; in experiment [17], > 10 µM. Besides, the AC50 in experiment [11] was > 30 µM; in experiment [12], > 10 µM; in experiment [16], > 30 µM; in experiment [13], > 10 µM; in experiment [18] it was > 30 µM; in experiment [19], > 10 µM. Moreover, in experiment [14], the concentration at half-maximal activity (AC50) is > 30 µM.
For `Nc1nc(N)c2nc(-c3ccccc3)c(N)nc2n1`, the AC50 in [1] was > 30 µM; in experiment [2] it was > 30 µM; in experiment [3], > 30 µM; in experiment [4], > 30 µM; in [5], > 30 µM; in [15], > 10 µM. Further, the AC50 in experiment [6] was > 30 µM; in [7], > 30 µM; in experiment [8], > 30 µM; in [9], > 30 µM; in [10], > 30 µM; in experiment [11], 20.8 µM. In addition, the half-maximal activity concentration (AC50) in experiment [12] was > 10 µM; in experiment [16], > 10 µM; in experiment [13], > 30 µM; in experiment [14] it was > 30 µM.
Consider `CC(C)C(=O)Nc1ccc([N+](=O)[O-])c(C(F)(F)F)c1` [FLUTAMIDE], for which the half-maximal activity concentration (AC50) in experiment [1] is 20.3 µM; in [3] it was > 30 µM; in experiment [4], > 10 µM; in experiment [5], > 30 µM; in experiment [15], > 30 µM; in [6], > 30 µM. Further, the AC50 is > 30 µM in experiment [7]; > 30 µM in experiment [8]; > 30 µM in experiment [9]; > 30 µM in experiment [11]; > 10 µM in experiment [12]; > 30 µM in experiment [16]. Moreover, the AC50 in experiment [13] was > 10 µM; in [14], > 30 µM.
For `NC(=O)c1cnccn1` [PYRAZINAMIDE], the AC50 was > 30 µM in [1]; > 30 µM in experiment [2]; > 30 µM in experiment [3]; > 30 µM in experiment [4]; > 30 µM in [5]; > 10 µM in [15]. The half-maximal activity concentration (AC50) in experiment [6], in [7], in experiment [8], in experiment [9], in experiment [10] and in experiment [11] was > 30 µM in each case. The AC50 in experiment [12] is > 10 µM; in experiment [16], 10.2 µM; in [13] it was > 30 µM; in experiment [14] it was > 30 µM.
Take `COc1cc2c(cc1OC)C(=O)C(CC1CCN(Cc3ccccc3)CC1)C2` (stereo not drawn) [DONEPEZIL]: the AC50 in experiment [1] is > 30 µM; in [2], > 30 µM; in [3], > 10 µM; in experiment [4] it was > 10 µM; in [5] it was > 30 µM; in experiment [6] it was > 30 µM. The AC50 in experiment [10] was > 30 µM; in experiment [17], > 30 µM; in experiment [11], > 30 µM; in experiment [16], > 30 µM; in experiment [13] it was > 10 µM; in [18], > 30 µM. Moreover, the half-maximal activity concentration (AC50) in experiment [19] is > 10 µM; in experiment [14], > 30 µM.
Turning to `Oc1ncnc2[nH]ncc12` [ALLOPURINOL], the AC50 in experiment [1] was > 30 µM; in experiment [2] it was > 30 µM; in [3], > 10 µM; in experiment [4], > 10 µM; in experiment [5], > 30 µM; in [15], 2.88 µM. Moreover, the half-maximal activity concentration (AC50) in experiment [6], in experiment [7], in [8], in experiment [9], in experiment [10] and in [11] was > 30 µM each time. Besides, the AC50 is > 10 µM in experiment [12], > 30 µM in experiment [16], > 10 µM in experiment [13] and > 30 µM in [14].
Regarding `C[C@H]1O[C@H](O[C@H]2[C@H](O)[C@@H](O)[C@@H](O[C@H]3[C@H](O)[C@@H](O)C(O)O[C@@H]3CO)O[C@@H]2CO)[C@H](O)[C@@H](O)[C@@H]1N[C@H]1C=C(CO)[C@@H](O)[C@H](O)[C@H]1O` (stereo partly drawn) [ACARBOSE], the AC50 in experiment [1] was > 30 µM; in [2] it was > 30 µM; in experiment [3], > 10 µM; in [4], > 30 µM; in experiment [5], 24.4 µM; in experiment [15], > 10 µM. Moreover, the AC50 in experiment [6] was > 30 µM; in experiment [7], > 30 µM; in [8], > 30 µM; in [9], > 30 µM; in experiment [10] it was 30 µM; in experiment [11], 5.08 µM. Besides, the half-maximal activity concentration (AC50) in experiment [12] was > 10 µM; in [16], > 30 µM; in experiment [14], > 30 µM.

The record behind these values is ChEMBL document CHEMBL5291721, “A preclinical secondary pharmacology resource illuminates target-adverse drug reaction associations of marketed drugs” (Nat Commun, 2023).
